According to US10039776B2, “Hepato-protective beverage composition” (priority 2013, dated 2018):

What was measured:
[1] = system: Male Wistar albino rats, alcohol induced sub-acute hepatotoxicity; assay: Alcohol induced sub-acute hepatotoxicity in rats: evaluation of hepato-protective activity (% protection, % synergism); format: in vivo
Source text: • 1. Hepato-protection: the ability to reduce stress and prevent damage to the liver. • 2. Synergistic hepato-protective effect: where the net hepato-protective effect of a combination is greater than the sum of the hepato-protective effects of the parts. • 3. Primary hepato-protective agent; 18α-Glycyrrhizin, 18β-Glycyrrhizin, or a combination thereof. • 4. Complimentary hepato-protective agent: sugar, sugar alcohol, or a combination thereof. • 5. Effective amount: the amount of each hepato-protective agent that must be included in a beverage to result in a net hepato-protective synergistic effect. Effective amounts include: • a. For 18α-Glycyrrhizin, a mass concentration range of 0.04% to 1.0%. • b. For 18β-Glycyrrhizin, a mass concentration range of 0.04% to 1.0%. • c. For sugar, a mass concentration range of 0.5% to 3.5%. • d. For sugar alcohol, a mass concentration range of 0.5% to 3.5%. • 6. Effective proportion: the proportional amount of how many units of complimentary hepato-protective agent should be added per unit of primary hepato-protective agent to result in a hepato-protective synergistic effect. An effective proportion is in the range of 1:2 to 175:2 (units of complimentary hepato-protective agent to units of primary hepato-protective agent). […] All animal experiments were conducted for a period of one month by per oral administration of 2.5 g/kg dose of alcohol.
The following tables 10 and 11 further illustrate hepatoprotective activity of the supplied alcoholic formulations in comparison with standard alcoholic drink in rat model, when fed orally for 4 weeks and also illustrate any synergistic effect of the ingredients. Hepatoprotection (HP) Calculation % Protection=1−[(T-NS)/(AL-NS)]×100 T=Mean value of drug treated, NS=Mean value of normal control, AL=Mean value of alcohol alone
Distilled ethanol was obtained from Bengal Chemicals, West Bengal, India, Biochemical kits like AST, ALT, ALKP and total protein were obtained from Span Diagnostics Ltd. Surat, India. Time course study of oxidative and nitrosative stress and antioxidant enzymes in K2Cr2O7-induced nephrotoxicity. BMC Nephrol., 6:4], TNF-α was estimated by standard procedures as mentioned in Rat TNF-α ELIS A kit (BioLegend, Inc. San Diego, Calif. USA).
Male Wistar albino rats weighing 150-200 g are procured from local registered traders (CPCSEA Regd No. 1443/po/6/4/CPCSEA), Kolkata, India, and were acclimatized for 7 days at standard housing condition (26° C.±2° C., 60-70% RFT with 12±1 hours light and dark cycle). Animals were fed with commercially available diet (Upton India Pvt. Ltd, India) and water ad-libitum during the experiment period.
Male Wistar albino rats weighing 150-200 g are procured and randomly divided into groups consisting of six animals in each group. Sub-acute toxicity is induced by alcohol in rats by oral administration of 25% alcohol (2.5 gm/kg/day, p.o.) for 28 days and this group served as the negative control and the positive control group received distilled water only.
All drug solutions were prepared in 15-40% aqueous alcohol, adjusting the pH in the range of 4.0-9.0 for evaluation of hepato-protective activity. This solution is further diluted with distilled water to obtain 25% aqueous alcoholic solution and administered orally by gavage to different rats group of step (a).
On day 28th day the animals are anaesthetized with ether and blood samples are collected by cardiac puncture and the serum is used for the assay of marker enzymes serum alanine aminotransferase (ALT), aspartate aminotransferase (AS′T), alkaline phosphatase (ALP). The rats are sacrificed by exposure to an overdose of ether, immediately after the collection of blood; their livers are removed, washed in cold saline. Part of the liver is used for preparation of liver homogenate in phosphate buffer (pH 7.4). […]

[2] = system: superoxide dismutase (SOD); conditions: erythritol-added group; cited from earlier work
[3] = cited from earlier work
[4] = sugar alcohol or sugar alone at 1%, alcohol 2.5 g/kg p.o. one month
[5] = sugar alcohol or sugar alone at 2.5%, alcohol 2.5 g/kg p.o. one month

| Molecule | ALT etc % Prot. [1, 4] [%] | GSH % Prot. [1, 4] [%] | MDA % Prot. [1, 4] [%] | SOD etc % Prot. [1, 4] [%] | TNF-α % Prot. [1, 4] [%] | ALT etc % Prot. [1, 5] [%] | GSH % Prot. [1, 5] [%] | MDA % Prot. [1, 5] [%] | SOD etc % Prot. [1, 5] [%] | TNF-α % Prot. [1, 5] [%] | other results |
| --- | --- | --- | --- | --- | --- | --- | --- | --- | --- | --- | --- |
| OC[C@H]1O[C@@](CO)(O[C@H]2O[C@H](CO)[C@@H](O)[C@H](O)[C@H]2O)[C@@H](O)[C@@H]1O [Suc, Sucrose] | 6.70 | 6 | 8.27 | 5.16 | 6.13 | 13.89 | 11.63 | 18.92 | 10.49 | 14.18 |  |
| O=C[C@H](O)[C@@H](O)[C@H](O)CO [Xyls, Xylose] | 8.06 | 6.23 | 6.28 | 7.83 | 6.44 | 14.73 | 11.84 | 15.38 | 19.1 | 13.98 |  |
| OC[C@@H](O)[C@@H](O)[C@H](O)[C@H](O)CO [Sample Code A, D-Mannitol] |  |  |  |  |  |  |  |  |  |  | TNF-α % Prot. ([1]; alcohol 2.5 g/kg/day p.o. 28 days, composition fixed by sample/example, listed as Example 2): 7.19%; GSH % Prot. ([1]; alcohol 2.5 g/kg/day p.o. 28 days, liver homogenate, composition fixed by sample/example, listed as Example 2): 10.35%; MDA % Prot. ([1]; hepatic MDA, alcohol 2.5 g/kg/day p.o. 28 days, composition fixed by sample/example, listed as Example 2): 19.17%; SOD etc % Prot. ([1]; mean of SOD, CAT and GPx, alcohol 2.5 g/kg/day p.o. 28 days, composition fixed by sample/example, listed as Example 2): 12.71%; ALT etc % Prot. ([1]; mean of serum ALT, AST and ALKP, alcohol 2.5 g/kg/day p.o. 28 days, composition fixed by sample/example, listed as Example 2): 12.26% |
| OC[C@H]1O[C@@H](O[C@H]2[C@H](O)[C@@H](O)C(O)O[C@@H]2CO)[C@H](O)[C@@H](O)[C@H]1O (stereo partly drawn) [Lac, Lactose] | 8.21 | 4.36 | 7.70 | 6.78 | 8.19 | 17.41 |  | 21.47 | 17.38 | 15.26 |  |
| OC[C@@H](O)[C@H](O)[C@@H](O)CO [Xyl, D-Xylitol] | 17.62 | 19.76 | 26.9 | 18.91 | 15.77 | 26.72 | 35.57 | 45.38 | 36.88 | 30.05 |  |
| OC[C@@H](O)[C@@H](O)[C@H](O)[C@H](O)CO [Sample Code C, D-Mannitol] |  |  |  |  |  |  |  |  |  |  | TNF-α % Prot. ([1]; alcohol 2.5 g/kg/day p.o. 28 days, composition fixed by sample/example, listed as 3): 16.74%; TNF-α % Prot. ([1]; alcohol 2.5 g/kg/day p.o. 28 days, composition fixed by sample/example, listed as Example 3): 31.46%; GSH % Prot. ([1]; alcohol 2.5 g/kg/day p.o. 28 days, liver homogenate, composition fixed by sample/example, listed as 3): 20.06%; GSH % Prot. ([1]; alcohol 2.5 g/kg/day p.o. 28 days, liver homogenate, composition fixed by sample/example, listed as Example 3): 31.53%; MDA % Prot. ([1]; hepatic MDA, alcohol 2.5 g/kg/day p.o. 28 days, composition fixed by sample/example, listed as 3): 31.63%; MDA % Prot. ([1]; hepatic MDA, alcohol 2.5 g/kg/day p.o. 28 days, composition fixed by sample/example, listed as Example 3): 50.80%; SOD etc % Prot. ([1]; mean of SOD, CAT and GPx, alcohol 2.5 g/kg/day p.o. 28 days, composition fixed by sample/example, listed as 3): 19.32%; SOD etc % Prot. ([1]; mean of SOD, CAT and GPx, alcohol 2.5 g/kg/day p.o. 28 days, composition fixed by sample/example, listed as Example 3): 35.83%; ALT etc % Prot. ([1]; mean of serum ALT, AST and ALKP, alcohol 2.5 g/kg/day p.o. 28 days, composition fixed by sample/example, listed as 3): 70.37%; ALT etc % Prot. ([1]; mean of serum ALT, AST and ALKP, alcohol 2.5 g/kg/day p.o. 28 days, composition fixed by sample/example, listed as Example 3): 29.71% |
| OC[C@@H](O)[C@@H](O)CO [Ery, D-Erythritol] | 17.84 | 18.71 | 24.71 | 17.94 | 16.57 | 32.13 | 37.29 | 48.61 | 36.29 | 35.96 |  |
| OC[C@@H](O)[C@@H](O)CO [erythritol] |  |  |  |  |  |  |  |  |  |  | increase of SOD activity [2]: 2-5 times |
| CCO [ethanol] |  |  |  |  |  |  |  |  |  |  | time to peak blood alcohol concentration ([3]; fasting state): ≤ 30 min; ingested alcohol degraded to acetaldehyde ([3]; human being): 95%; ingested alcohol excreted unchanged ([3]; human being): 5%; share of alcohol metabolism accounted for by liver ([3]; in vivo): ~90%; alcohol metabolized per hour ([3]; typical adult, printed 'g of alcohol, hour'): 7 to 10 g |
| 18β-Glycyrrhizin [Sample Code D] |  |  |  |  |  |  |  |  |  |  | TNF-α % Prot. ([1]; alcohol 2.5 g/kg/day p.o. 28 days, composition fixed by sample/example, listed as Example 4): 7.64%; GSH % Prot. ([1]; alcohol 2.5 g/kg/day p.o. 28 days, liver homogenate, composition fixed by sample/example, listed as Example 4): 3.29%; MDA % Prot. ([1]; hepatic MDA, alcohol 2.5 g/kg/day p.o. 28 days, composition fixed by sample/example, listed as Example 4): 15.97%; SOD etc % Prot. ([1]; mean of SOD, CAT and GPx, alcohol 2.5 g/kg/day p.o. 28 days, composition fixed by sample/example, listed as Example 4): 11.45%; ALT etc % Prot. ([1]; mean of serum ALT, AST and ALKP, alcohol 2.5 g/kg/day p.o. 28 days, composition fixed by sample/example, listed as Example 4): 8.38% |
